Laboratory results published in US8476043B2, “Inhibitors for the soluble epoxide hydrolase” (The Regents of the University of California, priority 2004, dated 2013).
In brackets after ≈: the same amount, converted by molar mass. Where two headings read alike, the source gives them in different places. Values belong to the compound of their own block, whether it stands above or below them.

How the values were obtained:
rat sEH = target: T1, rat sEH (Rattus norvegicus, UniProt P80299); test: Relative turnover of arachidonic acid epoxides by rat renal cortex cytosol; format: biochemical; conditions: Table 19, EET mixture hydrolyzed to 30% by rat renal cortex cytosol
T1 construct: EET fatty acid was hydrolyzed to 30% by rat renal cortex cytosol; from tissue; host or cells: rat renal cortex cytosol
T1 sequence (P80299 1-554): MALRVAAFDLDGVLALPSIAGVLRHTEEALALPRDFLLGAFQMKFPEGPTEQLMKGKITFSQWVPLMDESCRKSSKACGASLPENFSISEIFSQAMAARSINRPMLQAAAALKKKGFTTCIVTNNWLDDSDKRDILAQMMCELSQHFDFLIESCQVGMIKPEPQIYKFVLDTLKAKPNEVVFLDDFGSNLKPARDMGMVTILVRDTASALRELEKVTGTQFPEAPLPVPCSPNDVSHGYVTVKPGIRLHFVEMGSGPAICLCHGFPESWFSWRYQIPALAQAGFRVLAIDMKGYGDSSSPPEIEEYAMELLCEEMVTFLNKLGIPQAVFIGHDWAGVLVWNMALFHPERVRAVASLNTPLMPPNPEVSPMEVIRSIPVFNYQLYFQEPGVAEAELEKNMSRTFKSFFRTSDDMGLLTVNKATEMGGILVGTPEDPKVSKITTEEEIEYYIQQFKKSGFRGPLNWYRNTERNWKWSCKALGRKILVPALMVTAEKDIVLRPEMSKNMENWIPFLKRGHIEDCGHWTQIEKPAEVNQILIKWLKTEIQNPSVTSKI
Method: For epoxy fatty acid hydrolysis, the soluble epoxide hydrolase prefers substrates with epoxide moieties that are more distant from the carboxyl terminal. Specifically the substrate preference decreases in the order of 14,15-EET>11,12-EET>8,9-EET>>>5,6-EET for the epoxides of arachidonic acid. Independently, the relative substrate turnover of the epoxy arachidonates were calculated at 0.1:8.1:14.3 when a 1:1:2 mixture of 8,9-, 11,12-, and 14,15-EET fatty acid was hydrolyzed to 30% by rat renal cortex cytosol. By considering the primary pharmacophore of the urea to be a transition-state analog of epoxide hydrolysis, inhibitors have now been developed which incorporate long aliphatic acids. These compounds are better substrate and transition state mimics than those incorporating shorter aliphatic acids. Accordingly, optimal soluble epoxide hydrolase inhibitors can be obtained by producing compounds with aliphatic acid substituents (i.e. a tertiary pharmacophore) which are separated from the primary pharmacophore by an equivalent distance as the terminal acid is separated from the epoxide in optimal substrates. Within the enzyme active site, epoxy fatty acids have been predicted to exist in an extended or pseudo-linear confirmation. Therefore, both the epoxy fatty acids and the aliphatic acid containing urea structures were approximated as two dimensional linear representations and measurements were made on each species. The critical measurements taken were distances (in angstroms) from the carboxylate hydroxyl to the urea carbonyl and the urea nitrogens.

[1] = Microsomal, NADPH dependent metabolic stability in rat hepatic microsomes; format: in vitro ADME; conditions: 1 μM, NADPH generating system, P450 dependent
Method: FIG. 6 is a graph illustrating the metabolic stabilities of 1-adamantyl-3-dodecyl urea (686) and 1-cyclohexyl-3-dodecyl urea (297) in rat hepatic microsomes. Microsomes were incubated with 1 μM 686 or 297 in the presence of an NADPH generating system. Data are expressed as mean±SD of triplicate experiments.
To evaluate the metabolic stability of these inhibitors, the microsomal and NADPH dependent metabolism of a number of potent sEH inhibitors was evaluated. […] The first step in the metabolic transformation of the n-alkyl to n-alkanoic acid derivatives is an NAPDH dependent process carried out by cytochrome P450 dependent omega hydroxylation in rodent and human hepatic tissue preparations (see FIG. 8). When in vivo metabolism was evaluated, evidence for the beta-oxidation of the alkanoic acid derivatives was also found (see FIG. 9).

[2] = Pharmacokinetics after oral gavage in mice; format: in vivo, male Swiss Webster mice
Method: Animals. Male Swiss Webster mice, 6 weeks-old, were obtained from Charles River (CA, USA). After 1-2 week acclimation period, healthy animals were assigned to study groups based on body-weight stratified randomization procedure. The body weight of animals used in all the experiments ranged from 28 g to 38 g.
Administration and measurement. Pharmacokinetic studies in mice used a 5 mg/kg dose of sEH inhibitors dissolved in corn oil and 4% DMSO administered orally. […] Then the samples were centrifuged at 6000 rpm for 5 min, and the ethyl acetate layer was dried under nitrogen. The residue was reconstituted in 25 μL of methanol, and aliquots (5 μL) were injected onto the LC-MS/MS system.
Analysis. Pharmacokinetics analysis was performed using SigmaPlot software system (SPSS science, Chicago, Ill.).

[3] = Oral treatment and pharmacokinetic study in a human subject or patient; format: in vivo; conditions: patient approaching end stage renal disease, brief oral treatment, low doses
Text: The discovery of the secondary and tertiary pharmacophores has also led to the employment of combinatorial chemistry approaches for establishing a wide spectrum of compounds having sEH inhibitory activity. The polar pharmacophores divide the molecule into domains each of which can be easily manipulated by common chemical approaches in a combinatorial manner, leading to the design and confirmation of novel orally available therapeutic agents for the treatment of diseases such as hypertension and vascular inflammation. The agents of the present invention treat such diseases while simultaneously increasing sodium excretion, reducing vascular and renal inflammation, and reducing male erectile dysfunction As shown below (see Example 51 and FIG. 13), alterations in solubility, bioavailability and pharmacological properties leads to compounds that can alter the regulatory lipids of experimental animals increasing the relative amounts of epoxy arachidonate derivatives when compared either to their diol products or to the proinflammatory and hypertensive hydroxyeicosatetraenoic acids (HETEs). Since epoxy arachidonates are anti-hypertensive and anti-inflammatory, altering the lipid ratios can lead to reduced blood pressure and reduced vascular and renal inflammation.
Serial bled blood samples (3-50 μL) were collected from finger tips into 50 μL heparinized capillary tube at various time points (0.5, 1, 2, 4, 6, 12 and 24 hr) after administration. These samples were used to measure parent compounds and their metabolites using LC-MS/MS as described above for experiments with mice. Blood samples were added 400 μL of distilled water and 25 μL of internal standard (500 ng/mL CTU), and vortexed. The blood samples were then extracted with 500 μL of ethyl acetate twice and the ethyl acetate layer was dried under nitrogen. The residue was reconstituted in 25 μL of methanol, and aliquots (10 μL) were injected onto the LC-MS/MS system as described above. Biological end points came from clinical chemistry samples run at The University of California Davis Clinical Laboratory and a series of 6 inflammatory markers including C reactive protein were run blind at the University of California Davis Department of Nephrology.

human sEH [4] = target: T2, human sEH (Homo sapiens, UniProt P34913); test: sEH inhibition, spectrometric assay with racemic 4-nitrophenyl-trans-2,3-epoxy-3-phenylpropyl carbonate as substrate; format: biochemical
T2 construct: made in house
T2 sequence (P34913 1-555): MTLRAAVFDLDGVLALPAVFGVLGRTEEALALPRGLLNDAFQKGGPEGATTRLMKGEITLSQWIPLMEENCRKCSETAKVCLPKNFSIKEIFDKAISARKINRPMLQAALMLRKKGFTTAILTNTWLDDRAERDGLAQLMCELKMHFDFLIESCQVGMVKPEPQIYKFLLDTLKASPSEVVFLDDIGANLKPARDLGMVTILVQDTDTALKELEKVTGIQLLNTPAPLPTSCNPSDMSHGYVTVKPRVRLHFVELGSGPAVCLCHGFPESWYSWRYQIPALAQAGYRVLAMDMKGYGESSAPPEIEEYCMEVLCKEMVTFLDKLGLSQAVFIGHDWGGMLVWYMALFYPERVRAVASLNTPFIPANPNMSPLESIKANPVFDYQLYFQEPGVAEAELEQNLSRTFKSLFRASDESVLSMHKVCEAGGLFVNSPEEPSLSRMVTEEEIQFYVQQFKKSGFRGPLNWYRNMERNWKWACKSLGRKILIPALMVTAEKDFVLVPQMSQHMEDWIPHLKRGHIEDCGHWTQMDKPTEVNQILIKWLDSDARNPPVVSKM
Method: (§1) Recombinant mouse sEH and human sEH were produced in a baculovirus expression system and purified by affinity chromatography. […] Protein concentration was quantified by using the Pierce BCA assay using Fraction V bovine serum albumin as the calibrating standard.
(§2) IC50 values were determined in one of two method. One method uses racemic 4-nitrophenyl-trans-2,3-epoxy-3-phenylpropyl carbonate as substrate. […] Assays were performed in triplicate. […] The curve was generated from at least three separate runs, each in triplicate, to obtain the standard deviation (SD) given in Table 1 thru Table 4.

human sEH [5] = target: T2, human sEH; test: sEH inhibition, fluorescent assay with cyano(6-methoxy-naphthalen-2-yl)methyl trans-[(3-phenyloxiran-2-yl)methyl]carbonate as substrate; format: biochemical; conditions: for IC50: Table 5, fluorescent-based assay, 0.96 nM human sEH, pH 7.0, [S] = 5 μM, read-out: Human sEH IC50
Method: as §1
Enzyme activity was measured by monitoring the appearance of 6-methoxy-2-naphthaldehyde. Assays were performed in triplicate. […] IC50 values were determined by regression of at least five datum points, with a minimum of two datum points in the linear region of the curve on either side of the IC50 values. The curve was generated from at least three separate runs, each in triplicate.

Solubility in water = format: physicochemical; conditions: for solubility of adamantyl compound relative to the corresponding cyclohexyl derivative: 789 vs. 772, 790 vs. 791, 686 vs. 297
mouse sEH = target: T3, mouse sEH (Mus musculus, UniProt P34914); test: sEH inhibition, spectrometric assay with racemic 4-nitrophenyl-trans-2,3-epoxy-3-phenylpropyl carbonate as substrate; format: biochemical; conditions: read-out: IC50 Mouse sEH
T3 construct: made in house
T3 sequence (P34914 1-554): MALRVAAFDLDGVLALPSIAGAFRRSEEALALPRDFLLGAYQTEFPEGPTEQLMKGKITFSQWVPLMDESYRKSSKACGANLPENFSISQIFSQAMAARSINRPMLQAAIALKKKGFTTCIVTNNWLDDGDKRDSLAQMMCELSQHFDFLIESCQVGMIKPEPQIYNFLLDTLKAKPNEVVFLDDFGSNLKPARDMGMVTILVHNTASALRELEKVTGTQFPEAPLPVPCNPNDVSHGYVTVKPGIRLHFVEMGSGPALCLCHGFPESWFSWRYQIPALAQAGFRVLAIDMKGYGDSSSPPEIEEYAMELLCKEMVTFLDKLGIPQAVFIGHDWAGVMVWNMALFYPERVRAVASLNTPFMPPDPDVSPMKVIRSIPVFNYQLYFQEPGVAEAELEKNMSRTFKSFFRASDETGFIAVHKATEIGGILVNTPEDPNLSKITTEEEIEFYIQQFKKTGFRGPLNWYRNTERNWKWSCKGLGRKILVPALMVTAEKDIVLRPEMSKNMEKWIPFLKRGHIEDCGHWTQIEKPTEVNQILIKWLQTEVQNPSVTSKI
Method: as §1, §2

Solubility in oil = format: physicochemical; conditions: Table 5
[6] = Table 3, mean ± SD, read-out: IC50 Human sEH

Relative EET Turnover (rat sEH): 14.3
SMILES: CCCCCC1OC1C/C=C\C/C=C\C/C=C\CCCC(=O)O (centres unmarked) [14,15-EET]

metabolic stability in microsomal preparations [1]: stable
time to reach the maximum concentration [2]: 30 min
SMILES: O=C(O)CCCCCCCCCCCNC(=O)NC12CC3CC(CC(C3)C1)C2 [Compound 687, 1-(1-adamantyl)-3-(12-dodecanoic acid)urea]

SMILES: CCCCOC(=O)CCCCCCCCCCCNC(=O)NC12CC3CC(CC(C3)C1)C2 [Compound 800, 1-(1-Adamantyl)-3-(11-butoxycarbonylundecyl)urea]
blood urea nitrogen [3]: dramatic reduction in blood urea nitrogen
serum levels of C reactive protein [3]: dramatically reduced serum levels of C reactive protein
serum profile of regulatory lipids [3]: altered the serum profile of regulatory lipids in a positive manner
systolic and diastolic blood pressure [3]: reduced systolic and diastolic blood pressure

IC50 (human sEH [4]; Table 5, spectrometric-based assay, read-out: Human sEH IC50): 210 ± 10 nM
fold decrease in inhibition potency on human sEH (human sEH [5]; 792 vs. 687, 1001, 1002 and 798 vs. the sulfonylamides): 25 fold
IC50 (human sEH [5]): 55 nM
fold better water solubility than compound 687 (Solubility in water): 2.5 fold
Solubility in water (Solubility in water; Table 5): 63 µg/mL (≈ 112 µM)
SMILES: CCCCCCCCC(NC(=O)CCCCCCCCCCCNC(=O)NC12CC3CC(CC(C3)C1)C2)C(=O)O (centres unmarked) [Compound 1001, 2-[12-3-(Adamantan-1-yl-ureido)dodecanoylamino]decanoic acid]

IC50 (human sEH [4]; [6]): 26000 ± 1000 nM
IC50 (mouse sEH; Table 3, mean ± SD): 7700 ± 600 nM
SMILES: CCCCCCC(=O)OCCNC(=O)Nc1cccc(Cl)c1 [Compound 761, 1-(3-chlorophenyl)-3-(2-hexylcarbonyloxyethyl)urea]

SMILES: CCCCCOC(=O)CCCNC(=O)NC12CC3CC(CC(C3)C1)C2 [Compound 789, 1-(1-Adamantyl)-3-(3-pentoxycarbonylpropyl)urea]
solubility of adamantyl compound relative to the corresponding cyclohexyl derivative (Solubility in water): approximately 2 ×

IC50 (human sEH [4]; [6]): 18000 ± 900 nM
IC50 (mouse sEH; Table 3, mean ± SD): 5300 ± 100 nM
SMILES: CCCCCNC(=O)OCCNC(=O)Nc1cccc(Cl)c1 [Compound 762, 1-(3-chlorophenyl)-3-(2-pentylaminocarbonyloxyethyl)urea]

IC50 (human sEH [5]): 1.9 nM
fold improvement in inhibition of the human enzyme (human sEH [5]; compared with 687 (compound 4)): about 1.5 fold
Solubility in oil (Solubility in oil): 5,000 μg/mL
SMILES: O=C(CCCCCCCCCCCNC(=O)NC12CC3CC(CC(C3)C1)C2)NS(=O)(=O)c1ccccc1 [Compound 914]

IC50 (human sEH [4]; Table 8, read-out: IC50 Human sEH): 100 ± 10 nM
IC50 (mouse sEH; Table 8): 50 ± 10 nM
SMILES: C#CCCOCCOCCCCCNC(=O)NC12CC3CC(CC(C3)C1)C2 [Compound 913]

solubility of adamantyl compound relative to the corresponding cyclohexyl derivative (Solubility in water): approximately 2 ×
metabolic stability in microsomal preparations [1]: rapidly metabolized
time to reach the maximum concentration [2]: 120 min
SMILES: CCCCCCCCCCCCNC(=O)NC12CC3CC(CC(C3)C1)C2 [Compound 686, 1-adamantyl-3-dodecylurea, reference compound]

Relative EET Turnover (rat sEH): 8.1
SMILES: CCCCC/C=C\C[C@H]1O[C@H]1C/C=C\C/C=C\CCCC(=O)O [11,12-EET]

Relative EET Turnover (rat sEH): 1
SMILES: CCCCC/C=C\C/C=C\CC1OC1C/C=C\CCCC(=O)O (centres unmarked) [8,9-EET]

solubility of adamantyl compound relative to the corresponding cyclohexyl derivative (Solubility in water): approximately 2 ×
SMILES: CCCCCCCCCCNC(=O)NC12CC3CC(CC(C3)C1)C2 [Compound 790]

Relative EET Turnover (rat sEH): 0.1
SMILES: CCCCC/C=C\C/C=C\C/C=C\CC1OC1CCCC(=O)O (centres unmarked) [5,6-EET]
